One assay has as its system A-427. Kind of assay: relative viability (nuclei count vs DMSO), 5 days (fraction); higher = more cells survive. To be noted: first compound 0.253 µM. An outline of the steps: (§1)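 Dosing by pin tool came one day after lung cancer cell lines were seeded in 1536-well plates, using either one drug or a fixed anchor-drug dose plus five library-drug doses (not always all listed) in √10 steps. After 5 days, nuclei were counted on 4× images. Relative viability is treated-well nuclei count divided by vehicle-well nuclei count, and values are medians of duplicate plates.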
Molecule `Nc1cccc2c1CN(C1CCC(=O)NC1=O)C2=O` (configuration not stated) [Lenalidomide] + Nc1ncn([C@H]2C[C@H](O)[C@@H](CO)O2)c(=O)n1 [Decitabine] (partner 2 µM) came in with a relative viability of 0.566.
Still for that read-out and setting: the result for `Nc1cccc2c1CN(C1CCC(=O)NC1=O)C2=O` (configuration not stated) [Lenalidomide] + N=C(N)NC(=N)NCCc1ccccc1 [Phenformin] (partner 250 µM) reads 0.317.
On to `Nc1cccc2c1CN(C1CCC(=O)NC1=O)C2=O` (configuration not stated) [Lenalidomide] + Nc1nc2[nH]cc(CCc3ccc(C(=O)N[C@@H](CCC(=O)O)C(=O)O)cc3)c2c(=O)[nH]1 [Pemetrexed] (partner 0.2 µM), for which the relative viability is 0.989.
Molecule `Nc1cccc2c1CN(C1CCC(=O)NC1=O)C2=O` (configuration not stated) [Lenalidomide] + CC(=O)c1c(C)c2cnc(Nc3ccc(N4CCNCC4)cn3)nc2n(C2CCCC2)c1=O [Palbociclib] (partner 0.5 µM) yielded a relative viability of 0.529.
The same measure, in the same setting: the result for `Nc1cccc2c1CN(C1CCC(=O)NC1=O)C2=O` (configuration not stated) [Lenalidomide] + O=C(CCCCCCC(=O)Nc1ccccc1)NO [Vorinostat] (partner 1 µM) reads 0.871.
Same read-out and setting: as for `Nc1cccc2c1CN(C1CCC(=O)NC1=O)C2=O` (configuration not stated) [Lenalidomide] + COc1cccc2cc(-c3nc([C@H]4CC[C@H](C(=O)O)CC4)n4ncnc(N)c34)[nH]c12 [OSI-027] (partner 0.5 µM), the figure is 0.48.

The same assay, now with this note: first compound 0.8 µM.
In turn, `Nc1cccc2c1CN(C1CCC(=O)NC1=O)C2=O` (configuration not stated) [Lenalidomide] + Nc1ncn([C@H]2C[C@H](O)[C@@H](CO)O2)c(=O)n1 [Decitabine] (partner 2 µM) yielded a relative viability of 0.573.
Same read-out and setting: the result for `Nc1cccc2c1CN(C1CCC(=O)NC1=O)C2=O` (configuration not stated) [Lenalidomide] + N=C(N)NC(=N)NCCc1ccccc1 [Phenformin] (partner 250 µM) reads 0.324; that for `Nc1cccc2c1CN(C1CCC(=O)NC1=O)C2=O` (configuration not stated) [Lenalidomide] + Nc1nc2[nH]cc(CCc3ccc(C(=O)N[C@@H](CCC(=O)O)C(=O)O)cc3)c2c(=O)[nH]1 [Pemetrexed] (partner 0.2 µM), 0.931.
Take `Nc1cccc2c1CN(C1CCC(=O)NC1=O)C2=O` (configuration not stated) [Lenalidomide] + CC(=O)c1c(C)c2cnc(Nc3ccc(N4CCNCC4)cn3)nc2n(C2CCCC2)c1=O [Palbociclib] (partner 0.5 µM): the relative viability was 0.49.
Regarding `Nc1cccc2c1CN(C1CCC(=O)NC1=O)C2=O` (configuration not stated) [Lenalidomide] + O=C(CCCCCCC(=O)Nc1ccccc1)NO [Vorinostat] (partner 1 µM), the relative viability was 0.898.
On the same count and under the same terms, as for `Nc1cccc2c1CN(C1CCC(=O)NC1=O)C2=O` (configuration not stated) [Lenalidomide] + COc1cccc2cc(-c3nc([C@H]4CC[C@H](C(=O)O)CC4)n4ncnc(N)c34)[nH]c12 [OSI-027] (partner 0.5 µM), the figure is 0.387.

The same assay, now with this note: first compound 2.53 µM.
Turning to `Nc1cccc2c1CN(C1CCC(=O)NC1=O)C2=O` (configuration not stated) [Lenalidomide] + Nc1ncn([C@H]2C[C@H](O)[C@@H](CO)O2)c(=O)n1 [Decitabine] (partner 2 µM), the relative viability came to 0.646.
On the same count and under the same terms, the result for `Nc1cccc2c1CN(C1CCC(=O)NC1=O)C2=O` (configuration not stated) [Lenalidomide] + N=C(N)NC(=N)NCCc1ccccc1 [Phenformin] (partner 250 µM) reads 0.421; that for `Nc1cccc2c1CN(C1CCC(=O)NC1=O)C2=O` (configuration not stated) [Lenalidomide] + Nc1nc2[nH]cc(CCc3ccc(C(=O)N[C@@H](CCC(=O)O)C(=O)O)cc3)c2c(=O)[nH]1 [Pemetrexed] (partner 0.2 µM), 1.05.
Regarding `Nc1cccc2c1CN(C1CCC(=O)NC1=O)C2=O` (configuration not stated) [Lenalidomide] + CC(=O)c1c(C)c2cnc(Nc3ccc(N4CCNCC4)cn3)nc2n(C2CCCC2)c1=O [Palbociclib] (partner 0.5 µM), the relative viability worked out at 0.548.
Regarding `Nc1cccc2c1CN(C1CCC(=O)NC1=O)C2=O` (configuration not stated) [Lenalidomide] + O=C(CCCCCCC(=O)Nc1ccccc1)NO [Vorinostat] (partner 1 µM), the relative viability stood at 0.878.
In turn, `Nc1cccc2c1CN(C1CCC(=O)NC1=O)C2=O` (configuration not stated) [Lenalidomide] + COc1cccc2cc(-c3nc([C@H]4CC[C@H](C(=O)O)CC4)n4ncnc(N)c34)[nH]c12 [OSI-027] (partner 0.5 µM) showed a relative viability of 0.473.

The same assay, now with this note: first compound 8 µM.
Molecule `Nc1cccc2c1CN(C1CCC(=O)NC1=O)C2=O` (configuration not stated) [Lenalidomide] + Nc1ncn([C@H]2C[C@H](O)[C@@H](CO)O2)c(=O)n1 [Decitabine] (partner 2 µM) showed a relative viability of 0.552.
Regarding `Nc1cccc2c1CN(C1CCC(=O)NC1=O)C2=O` (configuration not stated) [Lenalidomide] + N=C(N)NC(=N)NCCc1ccccc1 [Phenformin] (partner 250 µM), the relative viability was determined as 0.311.
Same read-out and setting: the result for `Nc1cccc2c1CN(C1CCC(=O)NC1=O)C2=O` (configuration not stated) [Lenalidomide] + Nc1nc2[nH]cc(CCc3ccc(C(=O)N[C@@H](CCC(=O)O)C(=O)O)cc3)c2c(=O)[nH]1 [Pemetrexed] (partner 0.2 µM) reads 0.993.
On the same count and under the same terms, as for `Nc1cccc2c1CN(C1CCC(=O)NC1=O)C2=O` (configuration not stated) [Lenalidomide] + CC(=O)c1c(C)c2cnc(Nc3ccc(N4CCNCC4)cn3)nc2n(C2CCCC2)c1=O [Palbociclib] (partner 0.5 µM), the figure is 0.529; as for `Nc1cccc2c1CN(C1CCC(=O)NC1=O)C2=O` (configuration not stated) [Lenalidomide] + O=C(CCCCCCC(=O)Nc1ccccc1)NO [Vorinostat] (partner 1 µM), 0.873.
The same measure, in the same setting: as for `Nc1cccc2c1CN(C1CCC(=O)NC1=O)C2=O` (configuration not stated) [Lenalidomide] + COc1cccc2cc(-c3nc([C@H]4CC[C@H](C(=O)O)CC4)n4ncnc(N)c34)[nH]c12 [OSI-027] (partner 0.5 µM), the figure is 0.514.

The test system of a further assay is A549. Described as above. To be noted: first compound 0.253 µM. An outline of the steps: as §1
`Nc1cccc2c1CN(C1CCC(=O)NC1=O)C2=O` (configuration not stated) [Lenalidomide] + Nc1ncn([C@H]2C[C@H](O)[C@@H](CO)O2)c(=O)n1 [Decitabine] (partner 2 µM) gave a relative viability of 0.211.
On the same count and under the same terms, the result for `Nc1cccc2c1CN(C1CCC(=O)NC1=O)C2=O` (configuration not stated) [Lenalidomide] + N=C(N)NC(=N)NCCc1ccccc1 [Phenformin] (partner 250 µM) reads 0.104.

The assay is the same for the next values; noted with them: first compound 0.8 µM.
With `Nc1cccc2c1CN(C1CCC(=O)NC1=O)C2=O` (configuration not stated) [Lenalidomide] + Nc1ncn([C@H]2C[C@H](O)[C@@H](CO)O2)c(=O)n1 [Decitabine] (partner 2 µM), the relative viability came out at 0.22.
`Nc1cccc2c1CN(C1CCC(=O)NC1=O)C2=O` (configuration not stated) [Lenalidomide] + N=C(N)NC(=N)NCCc1ccccc1 [Phenformin] (partner 250 µM) registered a relative viability of 0.158.

The assay is the same for the next values; noted with them: first compound 2.53 µM.
Molecule `Nc1cccc2c1CN(C1CCC(=O)NC1=O)C2=O` (configuration not stated) [Lenalidomide] + Nc1ncn([C@H]2C[C@H](O)[C@@H](CO)O2)c(=O)n1 [Decitabine] (partner 2 µM) registered a relative viability of 0.268.
On the same count and under the same terms, the result for `Nc1cccc2c1CN(C1CCC(=O)NC1=O)C2=O` (configuration not stated) [Lenalidomide] + N=C(N)NC(=N)NCCc1ccccc1 [Phenformin] (partner 250 µM) reads 0.168.

The assay is the same for the next values; noted with them: first compound 8 µM.
With `Nc1cccc2c1CN(C1CCC(=O)NC1=O)C2=O` (configuration not stated) [Lenalidomide] + Nc1ncn([C@H]2C[C@H](O)[C@@H](CO)O2)c(=O)n1 [Decitabine] (partner 2 µM), the relative viability came out at 0.269.
Still for that read-out and setting: the result for `Nc1cccc2c1CN(C1CCC(=O)NC1=O)C2=O` (configuration not stated) [Lenalidomide] + N=C(N)NC(=N)NCCc1ccccc1 [Phenformin] (partner 250 µM) reads 0.208.

These data come from the supplement of paper PMC10307832.
